Measured values: article PMC4845010, “Three TaFAR genes function in the biosynthesis of primary alcohols and the response to abiotic stresses in Triticum aestivum” (Scientific Reports, 2016)

Molecular target: T1, TaFAR3 (Triticum aestivum, UniProt A0A142IX60)
T1 construct: gene FAR3; full-length ORF, 497 residues (1,494 bp), untagged expression from pYES2/pYES3 in Saccharomyces cerevisiae; gene on chromosome 4BS
T1 sequence (A0A142IX60 1-497): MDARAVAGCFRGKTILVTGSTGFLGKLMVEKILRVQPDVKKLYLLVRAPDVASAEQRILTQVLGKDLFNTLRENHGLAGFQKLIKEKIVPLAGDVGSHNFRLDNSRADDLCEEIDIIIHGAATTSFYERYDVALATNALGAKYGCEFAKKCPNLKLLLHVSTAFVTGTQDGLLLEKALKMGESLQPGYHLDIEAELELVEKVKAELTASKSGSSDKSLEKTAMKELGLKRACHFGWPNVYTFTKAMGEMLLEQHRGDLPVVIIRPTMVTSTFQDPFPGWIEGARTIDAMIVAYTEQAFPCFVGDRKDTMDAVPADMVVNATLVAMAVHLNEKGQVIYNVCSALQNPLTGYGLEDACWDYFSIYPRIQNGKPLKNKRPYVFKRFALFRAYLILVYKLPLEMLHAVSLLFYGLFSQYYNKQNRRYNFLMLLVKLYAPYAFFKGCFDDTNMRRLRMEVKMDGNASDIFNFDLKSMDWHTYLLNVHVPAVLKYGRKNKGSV
Assay: heterologous expression in yeast, lipid extraction, TLC and GC-MS
Format: cell-based
Conditions: yeast mutant INVSur4# (Sur4 F262A/K266L); endogenous acyl-CoA substrates; none in empty-vector control

CCCCCCCCCCCCCCCCCCCCCCCCCCCCO [C28:0-OH]
heterologous expression in yeast, lipid extraction, TLC and GC-MS: In the case of TaFAR3, the highest production of primary alcohol was C28:0-OH
